Assay [1] deals with TNF-α production in THP-1 cells. Put plainly: Inhibition of tumor necrosis factor-alpha production in THP-1 cell line (ELISA). Particulars: for amount of TNF-α produced in THP-1 cells, Average: PMA 25 ng/ml 24 h, then LPS, 24 h, No Drug control 5250; for production of TNF-α in cells (THP-1), result in words: FIG. 2A and Table 1. The assay is classed as cell-based, human. The method, then: The human THP-1 cell line (ATCC) was prepared and cultured at a temperature of 37° C. and under 5% CO2.
Prepared THP-1 cells were inoculated onto a 96-well plate at the density of 1×10^5, and HL-156A, HL-156B, HL-156C, HL-156D, HL-156E, and HL-156F (all produced by Hanoi BioPharma Inc.) were added at the concentration of 1 μM or 10 μM to the cell culture solution. Thereafter, 25 ng/ml of phorbol 12-myristate 13-acetate (PMA, Sigma-Aldrich) was added to the cell culture solution, and cells were cultured for 24 hours, and then, lipopolysaccharide (LPS) was added thereto to induce an immune response of THP-1 cell. As a negative control, a group in which LPS was not added or a group in which
LPS was added but no drug was added, were used.
THP-1 cells were cultured for 24 hours, and then, the amount of tumor necrosis factor-alpha (TNF-α) in the culture solution by using TNF ELISA kit (Invitrogen) was measured.
Background: ELISA stands for enzyme-linked immunosorbent assay.

For assay [2], the system named is TNF-α production in MH7A cells. In words: Inhibition of tumor necrosis factor-alpha production in synoviocyte MH7A (ELISA). The class given is cell-based, human. The conditions noted are these: for amount of TNF-α in MH7A culture solution, Average: LPS, 24 h, control 1 (HL156A series), 3.53 (HL156B series); for production of TNF-α in the cells (MH7A), result in words: 0.1, 1, 10 μM, Table 2 and FIG. 2B. As to the method:
Human synoviocyte cell line MH7A (provided by Prof. Kim Wan-wook of Catholic University) was prepared and cultured at a temperature of 37° C. and under 5% CO2.
The prepared MH7A cells were inoculated onto a 96-well plate at the density of 3×10^4 cells, and lipopolysaccharide (LPS) was added thereto to induce the immune response of MH7A cells. Then, HL-156A or HL-156B was added at a concentration of 0.1 μM, 1 μM, or 10 μM to the cell culture solution. As a negative control, a group in which LPS was used but no drug was used, was used.
After MH7A cells were cultured for 24 hours, the amount of TNF-α in the culture solution was measured by using a TNF-α ELISA kit (Peprotach).

Another assay relates to CD4 T cell. In words: Effect on T cell activation in vitro: proliferation of CD4 T cell (CTV, flow cytometry). Particulars: T cells activated 3 days with anti-CD3/28 Dynabeads; HL-156A 5, 15, 45 or 135 μM and/or 20 nM rapamycin; FIG. 1A. The assay is classed as cell-based, C57BL/6 mice. The source says:
(§1) The spleen was harvested from normal C57BL/6 mice (Orient Bio) and the mixture obtained by adding a RPMI solution containing 2% (v/v) fetal bovine serum (FBS) to the spleen tissues was homogenized by using a 40 μm strainer.
(§2) T cells were isolated from the homogenized spleen tissue by using CD90.2 magnetic beads (Miltenyi Biotec). Isolated T cells were labeled using CellTrace™ Violet (CTV). Subsequently, labeled T cells were activated for 3 days by using anti-CD3/28 Dynabeads®.
(§3) During T cells were activated, 5 μM, 15 μM, 45 μM, or 135 μM HL-156A (Hanoi BioPharma Inc.), and/or 20 nM rapamycin (LC Laboratories) were added to identify the effect of HL-156A, or the combination of HL-156A and rapamycin on the proliferation of T cells. […]
(§4) Activated T cells were immunostained by using allophycocyanin (APC)-labeled anti-CD4 antibody (BD Biosciences) and peridinin chlorophyll protein complex (PerCP)-labeled anti-CD8 antibody (eBioscience). Immunostained T cells were analyzed by flow cytometric analysis to identify the surface molecular phenotype thereof. From the results obtained by flow cytometric analysis, the proliferation ratio (%) of the T cell with respect to a material treated on the T cell was calculated, and the proliferation ratio (%) of CD4 T cell and the proliferation ratio (%) of CD8 T cell with respect to a compound are shown in FIGS. 1A and 1B, respectively.

The subject of assay [3] is collagen-induced arthritis mouse model. In words: Collagen-induced arthritis mouse model, arthritis score. Particulars: 60 mg/kg intraperitoneally once every two days; mice with average arthritis score of 8; FIG. 5. The class given is in vivo, DBA/1 mouse. The method, then: Bovine Type II collagen was dissolved in complete freund's adjuvant (CFA) containing 250 μg per mouse of heat-sterilized Mycobacterium tuberculosis H37Ra (BD Sciences) to prepare a collagen solution.
DBA/1 mouse was immunized by intradermally injecting […] per mouse of the prepared collagen thereinto. On day 21 after the immunization, bovine Type II collagen dissolved in incomplete freund's adjuvant (IFA) was injected subcutaneously into the tail of a mouse in an amount of 100 μg to boost the immune system.
The arthritis score of mice was measured using the following criteria:
Grade 0: swelling or erythema;
Grade 1: mild swelling and erythema, inflammation of the toes;
Grade 2: moderate swelling and erythema confined to the distal to mid-limbs;
Grade 3: extended to the ankle, clear swelling and erythema; and
Grade 4: Severe swelling, erythema, and joint stiffness of ankle, foot, and toes.
A score of 0 to 4 was assigned to each leg, and a maximum of 16 points of arthritis scores were assigned to each mouse.
Mice with an average arthritis score of 8 were randomly selected. The HL-156A compound was diluted in PBS and administered to the selected mice intraperitoneally once every two days with 60 mg/kg body weight of HL-156A compound.

A further assay has as its system CD8 T cell. In words: Effect on T cell activation in vitro: proliferation of CD8 T cell (CTV, flow cytometry). Particulars: T cells activated 3 days with anti-CD3/28 Dynabeads; HL-156A 5, 15, 45 or 135 μM and/or 20 nM rapamycin; FIG. 1B. The assay is classed as cell-based, C57BL/6 mice.
Text: as §1, §2, §3, §4

Assay [4] has as its system virus-specific CD8+ T cell (GP33+CD8 T cell). Set-up: species or system C57BL/6 mouse. Particulars: mouse, in vivo.

Take `N=C(NC(=N)N1CCCCC1)Nc1ccc(-c2nnn[nH]2)cc1` [HL-156D, N1-piperidine-N5-(4-(1H-tetrazole-5-yl))phenyl biguanide]: the “amount of TNF-α produced in THP-1 cells, Average” value (from here on “amount of TNF-α produced”) in assay [1] (1 μM compound) came out at 6125 pg/mL; in assay [1] (10 μM compound) it was 5150 pg/mL.
As for `COc1cc(NC(=N)NC(=N)N2CCCCC2)cc(OC)c1` [HL-156F, N1-piperidine-N5-(3,5-dimethoxy)phenyl biguanide], the “amount of TNF-α produced” value in assay [1] (1 μM compound) is 6425 pg/mL; in assay [1] (10 μM compound), 4650 pg/mL. In addition, the “production of TNF-α in cells (THP-1), result in words” value (from here on “production of TNF-α in cells”) in assay [1] was “inhibited the production of TNF-α”.
Take `N=C(NC(=N)N1CCCC1)Nc1ccc(C(F)(F)F)cc1` [HL-156B, N1-pyrrolidine-N5-(4-trifluoromethyl)phenyl biguanide]: the “amount of TNF-α produced” value was found to be 6125 pg/mL in assay [1] (1 μM compound) and 2875 pg/mL in assay [1] (10 μM compound). Further, the “production of TNF-α in cells” value in assay [1] is “inhibited the production of TNF-α”. For the same compound, the entries for the “amount of TNF-α in MH7A culture solution, Average” value in assay [2] (0.1 μM compound), in assay [2] (1 μM compound) and in assay [2] (10 μM compound) were 3.11, 2.56 and 2.17, respectively. Also, the “production of TNF-α in the cells (MH7A), result in words” value in assay [2] is on record as “inhibited the production of TNF-α in a concentration-dependent manner”.
With `N=C(NC(=N)N1CCCCC1)Nc1ccc(F)cc1` [HL-156C, N1-piperidine-N5-(4-fluoro)phenyl biguanide], the “amount of TNF-α produced” value was determined as 4825 pg/mL in assay [1] (1 μM compound) and 6375 pg/mL in assay [1] (10 μM compound).
As to `N=C(NC(=N)N1CCCC1)Nc1ccc(Cl)c(Cl)c1` [HL-156E, N1-pyrrolidine-N5-(3,4-dichloro)phenyl biguanide], the “amount of TNF-α produced” value in assay [1] (1 μM compound) was found to be 4725 pg/mL; in assay [1] (10 μM compound), 1925 pg/mL. In addition, the “production of TNF-α in cells” value in assay [1] is on record as “inhibited the production of TNF-α”.
`N=C(NC(=N)N1CCCC1)Nc1ccc(OC(F)(F)F)cc1` [HL-156A, N1-pyrrolidine-N5-(4-trifluoromethoxy)phenyl biguanide]: the “amount of TNF-α produced” value was found to be 6750 pg/mL in assay [1] (1 μM compound) and 3025 pg/mL in assay [1] (10 μM compound). For the same compound, in assay [1], the “production of TNF-α in cells” value is “inhibited the production of TNF-α”. In the assay on CD4 T cell, the “proliferation of CD4 T cell” value is listed as “significantly inhibited”. In addition, the “arthritis score over time” value in assay [3] is “decreased the arthritis score over time”. The “proliferation of CD8 T cell” value in the assay on CD8 T cell is on record as “significantly inhibited”. In addition, the “amount of TNF-α in MH7A culture solution, Average” value in assay [2] (0.1 μM compound) came to 0.82; in assay [2] (1 μM compound), 0.75; in assay [2] (10 μM compound), 0.72. Moreover, in assay [2], the “production of TNF-α in the cells (MH7A), result in words” value is listed as “inhibited the production of TNF-α in a concentration-dependent manner”. Further, the “differentiation of TCM cells and TEM cells in PBMCs” value in assay [4] was “inhibited”. In assay [4], the “proliferation of TEFF cells in PBMCs” value is reported as “promoted”.
